Calls of active or inactive are those of the source.
Key:
[1] = P. falciparum Dd2 growth inhibitors, dose response, SYBR Green, cherry-picked samples (AID 1159567); assay type: functional, cell-based
[2] = P. falciparum ATP4 D1247Y mutant growth inhibitors, dose response, NITD609-resistant line, SYBR Green, dry powder (AID 1159571); assay type: functional, cell-based;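 also: parasites synchronized at ring stage by sorbitol before testing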
[3] = P. falciparum 3D7-ScDHODH growth inhibitors, dose response, SYBR Green, dry powder samples (AID 1159570); assay type: functional, cell-based;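 also: parasite growth measured after 72 hours of compound exposure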
[4] = HepG2 cell cytotoxicity, dose response, cytotoxicity control, plate reader, dry powder samples (AID 1159569); assay type: functional, cell-based;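 also: inhibitor potency with signal falling toward the positive control level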
[5] = P. falciparum Dd2 growth inhibitors, dose response, SYBR Green, dry powder samples (AID 1159566); assay type: functional, cell-based;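 also: potency for growth inhibition with lower SYBR green DNA signal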
Kallikrein-7 = Kallikrein-7 (Homo sapiens, UniProt P49862); assay: Fluorescence Intensity-based biochemical primary high throughput dose response assay to identify activators of kallikrein-7 (K7) zymogen.
[6] = biological target: Sphingosine 1-phosphate receptor 2 (Homo sapiens, UniProt O95136); assay: Dose Response Cell Based Assay for Agonists of the S1P2 Receptor. [Related pubchem assays: 729, 736, 843 ]; assay type: functional
[7] = Artemis endonuclease inhibitor potency, dose response, biochemical, fluorescence intensity (AID 720701); assay type: functional;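 also: Artemis endonuclease enzyme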
[8] = A375 melanoma cell viability loss, dose response, counter-screen for MITF inhibitor project, CellTiter-Glo luminescence, dry powder, set 4 (AID 624364); assay type: functional, cell-based; conditions: A-375;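 also: A375 melanoma cells are MITF independent so this is a counter screen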
[9] = A375 melanoma cell cytotoxicity, dose response, counter-screen for MITF inhibitor project, CellTiter-Glo luminescence, dry powder, set 2 (AID 624489); assay type: functional, cell-based; conditions: A-375;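 also: actives are compounds lowering A375 viability meaning general cytotoxicity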
[10] = Jurkat T cell cytotoxicity, dose response, cytotoxicity control for P. falciparum gametocyte viability project, luminescence (AID 1117277); assay type: functional, cell-based;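 also: potency reflects loss of cellular ATP meaning fewer viable cells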
[11] = P. falciparum late gametocyte killing, dose response, luminescence (AID 1117278); assay type: functional, cell-based;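 also: gametocytes exposed to compound for 24 hours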
[12] = biological target: C-X-C chemokine receptor type 4 (Homo sapiens, UniProt P61073); assay: SAR analysis of small molecule antagonists of the CXCR6 receptor using a CXCR4 receptor luminescent beta-arrestin counterscreen.; assay type: functional
[13] = biological target: C-C chemokine receptor type 6 (Homo sapiens, UniProt P51684); assay: SAR analysis of small molecule antagonists of the CXCR6 receptor using a CCR6 receptor luminescent beta-arrestin counterscreen.; assay type: functional
SUMO-activating enzyme [14] = biological target: T1, SUMO-activating enzyme (Homo sapiens, UniProt Q9UBT2); assay: SUMOylation inhibitor hit validation, confirmation, SUMOylation inhibitor project, biochemical, AlphaScreen (AID 2018); assay type: functional
SUMO-activating enzyme [15] = biological target: T1, SUMO-activating enzyme; assay: inhibitors of in vitro SUMOylation cascade, primary screen, biochemical, HTRF, uHTS (AID 2006); assay type: protein-complex assay
Aminopeptidase N = biological target: T2, Aminopeptidase N (Plasmodium falciparum FcB1/Columbia, UniProt O96935); assay: P. falciparum M1AAP inhibitors, biochemical, fluorogenic H-Leu-NHMec substrate, 1536-well (AID 1445); parameters: species or system Plasmodium falciparum 3D7, 3D7
T2 sequence (O96935 whole entry): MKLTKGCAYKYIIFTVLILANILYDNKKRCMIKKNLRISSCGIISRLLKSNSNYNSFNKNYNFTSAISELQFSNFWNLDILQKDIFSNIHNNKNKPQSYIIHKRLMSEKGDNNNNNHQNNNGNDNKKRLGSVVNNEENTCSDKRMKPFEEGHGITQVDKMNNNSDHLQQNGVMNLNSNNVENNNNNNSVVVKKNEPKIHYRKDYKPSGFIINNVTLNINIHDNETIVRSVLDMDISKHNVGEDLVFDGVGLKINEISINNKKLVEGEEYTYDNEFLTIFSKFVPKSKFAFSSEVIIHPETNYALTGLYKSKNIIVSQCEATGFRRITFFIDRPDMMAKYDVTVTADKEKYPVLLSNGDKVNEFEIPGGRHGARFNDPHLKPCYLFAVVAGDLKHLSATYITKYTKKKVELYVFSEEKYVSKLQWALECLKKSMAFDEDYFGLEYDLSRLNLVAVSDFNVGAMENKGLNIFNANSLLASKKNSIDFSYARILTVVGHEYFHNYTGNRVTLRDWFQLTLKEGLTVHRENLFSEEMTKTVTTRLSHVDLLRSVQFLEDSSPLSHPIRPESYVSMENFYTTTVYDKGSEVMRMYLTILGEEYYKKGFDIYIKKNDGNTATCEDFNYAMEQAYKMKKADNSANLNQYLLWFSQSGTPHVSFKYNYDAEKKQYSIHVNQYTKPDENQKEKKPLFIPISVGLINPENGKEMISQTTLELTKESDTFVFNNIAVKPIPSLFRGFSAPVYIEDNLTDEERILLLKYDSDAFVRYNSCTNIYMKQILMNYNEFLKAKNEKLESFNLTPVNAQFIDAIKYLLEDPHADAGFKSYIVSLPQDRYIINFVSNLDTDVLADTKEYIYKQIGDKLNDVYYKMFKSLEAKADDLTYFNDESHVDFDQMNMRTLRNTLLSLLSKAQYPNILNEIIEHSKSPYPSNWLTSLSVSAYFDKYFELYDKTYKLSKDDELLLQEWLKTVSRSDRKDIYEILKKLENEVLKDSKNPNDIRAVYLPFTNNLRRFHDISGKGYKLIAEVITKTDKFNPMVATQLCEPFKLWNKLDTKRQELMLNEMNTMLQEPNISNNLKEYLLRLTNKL

[16] = biological target: E3 ubiquitin-protein ligase UHRF1 (Homo sapiens, UniProt Q96T88); assay: Counterscreen for inhibitors of 5-meCpG-binding domain protein 2 (MBD2): TRFRET-based biochemical high throughput dose response assay to identify inhibitors of binding of ubiquitin-like with PHD and ring finger domains 1 (UHRF1) to methylated oligonucleotide.
[17] = A549 cell cytotoxicity, dose response, cytotoxicity control, 24 h, CellTiter-Glo luminescence, cherry-picks (AID 1053115); assay type: functional, cell-based; conditions: A549, 24 h
[18] = A2780 ovarian cancer cell cytotoxicity, dose response, cytotoxicity control, plate reader, dry powder samples (AID 743046); assay type: functional, cell-based
Paired box protein Pax-8 = Paired box protein Pax-8 (Homo sapiens, UniProt Q06710); assay: inhibitors of PAX8-driven TPO luciferase reporter, dose response, RMG-I cells, cherry-pick (AID 687027); assay type: functional, cell-based;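 also: luciferase reporter driven by Pax8 target thyroperoxidase promoter measured by SteadyGlo luminescence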
[19] = cytotoxicity in OVCAR8 ovarian cancer cells, dose response, PAX8 project, cell-based, plate reader, dry powder samples (AID 743197); assay type: functional; conditions: OVCAR-8
[20] = NIH:OVCAR-3 ovarian cancer cell cytotoxicity, dose response, PAX8 inhibitor project, plate reader, dry powder samples (AID 743044); assay type: functional, cell-based
[21] = CTGF mRNA reduction under YAP1 overexpression, dose response, mechanism study for YAP1 pathway inhibitor project, DLD1 cells, RT-qPCR, cherry-pick (AID 1053127); assay type: functional, cell-based; conditions: DLD-1

T1 sequence (Q9UBE0 whole entry): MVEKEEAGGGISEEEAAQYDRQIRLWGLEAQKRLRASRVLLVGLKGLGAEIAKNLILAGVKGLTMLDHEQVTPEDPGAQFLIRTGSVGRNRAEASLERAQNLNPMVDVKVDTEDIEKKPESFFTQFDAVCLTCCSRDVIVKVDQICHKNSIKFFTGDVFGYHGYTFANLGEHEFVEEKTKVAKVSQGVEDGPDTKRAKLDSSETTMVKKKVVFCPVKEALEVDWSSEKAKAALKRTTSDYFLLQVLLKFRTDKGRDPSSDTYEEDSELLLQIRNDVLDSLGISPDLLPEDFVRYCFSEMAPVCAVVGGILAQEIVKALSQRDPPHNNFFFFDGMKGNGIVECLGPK
T1 sequence (Q9UBT2 whole entry): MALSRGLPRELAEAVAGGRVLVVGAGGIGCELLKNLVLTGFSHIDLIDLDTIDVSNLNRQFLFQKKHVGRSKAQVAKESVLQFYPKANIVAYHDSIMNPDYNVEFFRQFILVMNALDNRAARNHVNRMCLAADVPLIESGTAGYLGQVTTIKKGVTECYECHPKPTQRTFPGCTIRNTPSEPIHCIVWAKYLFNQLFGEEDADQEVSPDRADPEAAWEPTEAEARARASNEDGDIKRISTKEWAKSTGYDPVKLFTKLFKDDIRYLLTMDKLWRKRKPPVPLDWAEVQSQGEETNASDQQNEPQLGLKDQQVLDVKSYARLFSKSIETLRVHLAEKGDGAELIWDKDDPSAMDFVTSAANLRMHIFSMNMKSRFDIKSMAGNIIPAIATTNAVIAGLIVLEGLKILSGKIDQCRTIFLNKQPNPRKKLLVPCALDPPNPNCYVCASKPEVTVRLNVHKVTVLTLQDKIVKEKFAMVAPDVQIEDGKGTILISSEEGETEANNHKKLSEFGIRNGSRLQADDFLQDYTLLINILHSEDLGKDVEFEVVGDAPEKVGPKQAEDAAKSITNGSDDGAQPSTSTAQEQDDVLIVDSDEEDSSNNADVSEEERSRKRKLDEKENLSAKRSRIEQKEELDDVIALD
Chain of C-C chemokine receptor type 6 (P51684 whole entry): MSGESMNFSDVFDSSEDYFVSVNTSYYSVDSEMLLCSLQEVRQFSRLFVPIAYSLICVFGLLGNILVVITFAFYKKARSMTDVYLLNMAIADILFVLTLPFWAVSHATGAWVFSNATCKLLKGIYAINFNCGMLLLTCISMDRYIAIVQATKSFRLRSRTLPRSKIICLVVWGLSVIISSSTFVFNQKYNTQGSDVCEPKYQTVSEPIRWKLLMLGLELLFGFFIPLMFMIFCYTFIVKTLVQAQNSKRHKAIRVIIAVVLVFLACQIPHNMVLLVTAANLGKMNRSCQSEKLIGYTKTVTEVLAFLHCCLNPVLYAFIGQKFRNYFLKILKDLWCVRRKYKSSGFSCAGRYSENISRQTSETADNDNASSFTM
Chain of E3 ubiquitin-protein ligase UHRF1 (Q96T88 whole entry, the tested form may be a part): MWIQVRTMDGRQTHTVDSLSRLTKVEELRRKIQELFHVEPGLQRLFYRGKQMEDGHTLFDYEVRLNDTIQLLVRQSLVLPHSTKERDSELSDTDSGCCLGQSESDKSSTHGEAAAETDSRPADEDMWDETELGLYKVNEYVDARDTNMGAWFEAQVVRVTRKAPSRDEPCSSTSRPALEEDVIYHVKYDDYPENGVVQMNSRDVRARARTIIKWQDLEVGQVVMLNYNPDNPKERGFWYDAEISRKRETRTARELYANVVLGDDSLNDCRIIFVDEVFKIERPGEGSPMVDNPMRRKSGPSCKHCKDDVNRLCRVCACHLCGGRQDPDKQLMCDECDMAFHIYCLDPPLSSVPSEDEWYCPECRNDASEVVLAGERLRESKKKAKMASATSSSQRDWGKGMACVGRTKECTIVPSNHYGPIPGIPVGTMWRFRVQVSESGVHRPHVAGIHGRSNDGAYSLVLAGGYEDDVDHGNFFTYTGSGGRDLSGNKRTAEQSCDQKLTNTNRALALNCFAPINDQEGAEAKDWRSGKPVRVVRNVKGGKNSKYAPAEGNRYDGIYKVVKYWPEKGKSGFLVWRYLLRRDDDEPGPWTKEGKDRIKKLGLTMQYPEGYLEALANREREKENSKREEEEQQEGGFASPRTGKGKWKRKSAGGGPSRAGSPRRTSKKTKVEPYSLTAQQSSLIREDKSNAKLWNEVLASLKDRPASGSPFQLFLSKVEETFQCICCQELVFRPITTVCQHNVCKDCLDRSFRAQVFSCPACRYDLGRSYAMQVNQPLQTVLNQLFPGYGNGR
Chain of C-X-C chemokine receptor type 4 (P61073 whole entry): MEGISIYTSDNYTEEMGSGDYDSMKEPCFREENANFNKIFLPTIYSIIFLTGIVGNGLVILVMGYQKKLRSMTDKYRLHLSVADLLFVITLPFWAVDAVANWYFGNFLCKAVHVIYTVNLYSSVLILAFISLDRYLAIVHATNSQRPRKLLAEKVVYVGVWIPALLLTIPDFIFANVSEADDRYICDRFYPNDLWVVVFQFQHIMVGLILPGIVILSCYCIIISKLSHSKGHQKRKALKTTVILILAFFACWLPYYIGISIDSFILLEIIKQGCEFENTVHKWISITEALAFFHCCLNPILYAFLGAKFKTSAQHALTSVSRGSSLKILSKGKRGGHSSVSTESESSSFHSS
Chain of Paired box protein Pax-8 (Q06710 whole entry): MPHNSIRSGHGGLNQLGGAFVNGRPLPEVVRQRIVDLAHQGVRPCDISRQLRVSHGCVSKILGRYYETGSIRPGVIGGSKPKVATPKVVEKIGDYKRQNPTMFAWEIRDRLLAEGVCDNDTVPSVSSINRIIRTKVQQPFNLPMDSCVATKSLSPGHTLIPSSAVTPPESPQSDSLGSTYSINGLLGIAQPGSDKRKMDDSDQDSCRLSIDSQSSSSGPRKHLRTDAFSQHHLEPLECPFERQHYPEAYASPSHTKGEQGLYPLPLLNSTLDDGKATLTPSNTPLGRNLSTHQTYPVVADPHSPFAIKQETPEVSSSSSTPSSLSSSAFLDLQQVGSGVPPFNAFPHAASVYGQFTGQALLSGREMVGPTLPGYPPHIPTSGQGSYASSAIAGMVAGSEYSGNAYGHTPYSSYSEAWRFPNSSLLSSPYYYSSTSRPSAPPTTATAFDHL
Chain of Sphingosine 1-phosphate receptor 2 (O95136 whole entry): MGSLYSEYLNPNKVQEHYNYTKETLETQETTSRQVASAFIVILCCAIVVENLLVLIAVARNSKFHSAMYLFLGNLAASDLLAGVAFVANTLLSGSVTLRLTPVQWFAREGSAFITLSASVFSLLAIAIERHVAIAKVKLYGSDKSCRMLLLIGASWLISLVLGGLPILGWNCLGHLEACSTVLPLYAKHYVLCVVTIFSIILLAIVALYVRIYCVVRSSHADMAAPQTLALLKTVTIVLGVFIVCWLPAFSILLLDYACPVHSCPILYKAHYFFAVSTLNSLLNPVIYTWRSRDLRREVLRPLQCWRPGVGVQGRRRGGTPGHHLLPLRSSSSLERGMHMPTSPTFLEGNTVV
Chain of Kallikrein-7 (P49862 whole entry): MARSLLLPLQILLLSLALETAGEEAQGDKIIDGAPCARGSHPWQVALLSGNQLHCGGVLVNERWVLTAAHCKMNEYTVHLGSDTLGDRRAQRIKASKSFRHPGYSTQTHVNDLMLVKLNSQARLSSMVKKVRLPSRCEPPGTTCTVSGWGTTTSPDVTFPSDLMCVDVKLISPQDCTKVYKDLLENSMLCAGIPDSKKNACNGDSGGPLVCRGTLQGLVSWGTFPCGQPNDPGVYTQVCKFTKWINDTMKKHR

For COc1cccc(C#Cc2cnc3c(c2)C(=O)N([C@H](C)CO)C[C@H](C)[C@@H](CN(C)C(=O)C2CCCCC2)O3)c1, the AC50 [1] was 0.722 µM (active), the AC50 [2] was 0.803 µM (active) and the AC50 [3] was 1.58 µM (active). For the same compound, the AC50 [4] was 29.4 µM (active) and the AC50 [5] was 0.643 µM (active).

In the case of COc1ccc(OC)c(/C=N\NC(=O)c2c(C)nc3cc(C)ccn23)c1, the EC50 (Kallikrein-7) is reported as > 69.6 µM (inactive).

In the case of O=c1c(-c2nc3ccccc3s2)cccn1Cc1ccc(Cl)c(Cl)c1, the EC50 [6] is reported as 2.18 µM (active).

With Cc1ccc(C(=O)N/C(=C\c2ccc(-c3cc(Cl)ccc3Cl)o2)C(=O)NCc2cccnc2)cc1 the IC50 [7] was > 20 µM (inactive).

With C=CCNC1=C(N2CCN(CC)CC2)C(=O)c2ccccc2C1=O the AC50 [8] was 29.3 µM (active) and the AC50 [9] was 13.8 µM (active).

For Cc1ccccc1-c1nc(CN2CCCC(C(=O)NCCCN3CCOCC3)C2)c(C)o1 (centres undefined), the IC50 [10] was > 83.3 µM (inactive) and the IC50 [11] was > 109 µM (inactive).

With COc1ccc(NC(=O)CN2C3CCCC2CC(NC(=O)c2cc(OC)c(OC)c(OC)c2)C3)cc1 (centres undefined) the IC50 [12] was > 79 µM (inactive) and the IC50 [13] was > 79 µM (inactive).

For CCCN(C(=O)c1cc2c(s1)CCC2)c1c(N)n(Cc2ccccc2)c(=O)[nH]c1=O, the IC50 (SUMO-activating enzyme [14]) was 16.7 µM (active), the IC50 (SUMO-activating enzyme [15]) was 37.7 µM (active) and the IC50 (Aminopeptidase N) was 77.2 µM (active). For the same compound, the IC50 [16] was > 43.8 µM (inactive).

With N#Cc1ccc(-c2ccc3c(c2)[C@@H]2[C@@H](CCN2C(=O)C2CCCCC2)[C@H](CO)N3)cc1 the AC50 [17] was 46.8 µM (active).

In the case of O=C(C1CCC1)N1CC(=O)N2[C@H](C1)[C@H](c1ccc(C#Cc3cccc(F)c3)cc1)[C@@H]2CO, the AC50 [18] is reported as 18 µM (active), the AC50 (Paired box protein Pax-8) is reported as 10.6 µM (active) and the AC50 [19] is reported as > 70 µM (inactive). For the same compound, the AC50 [20] was 9.85 µM (active).

In the case of Cc1ccccc1-c1ccc([C@H]2[C@@H](CO)N3CCCCN(S(=O)(=O)Cc4ccccc4)C[C@@H]23)cc1, the AC50 [21] is reported as > 26 µM (inactive).
